Values quoted from earlier work as cited in patent US5679660A, “Pharmaceutical composition comprising diclofenac and cyclodextrin” (Farmarc Nederland BV, priority 1993, dated 1997).

Settings: literature, Backensfeld and Mueller 1990

effect on aqueous solubility of diclofenac: increase the aqueous solubility
SMILES: OC[C@H]1O[C@@H]2O[C@H]3[C@H](O)[C@@H](O)[C@@H](O[C@H]4[C@H](O)[C@@H](O)[C@@H](O[C@H]5[C@H](O)[C@@H](O)[C@@H](O[C@H]6[C@H](O)[C@@H](O)[C@@H](O[C@H]7[C@H](O)[C@@H](O)[C@@H](O[C@H]8[C@H](O)[C@@H](O)[C@@H](O[C@H]1[C@H](O)[C@H]2O)O[C@@H]8CO)O[C@@H]7CO)O[C@@H]6CO)O[C@@H]5CO)O[C@@H]4CO)O[C@@H]3CO [Beta-cyclodextrin]
